# Measurements taken from patent US11542316B2, “S-Arrestin peptides and therapeutic uses thereof” (APITOPE INTERNATIONAL NV, priority 2017, dated 2023).
# Ends that are not written are not given here.
# Biological target: T1, MHC II molecules present on dendritic cells (DC) (Homo sapiens, UniProt P01903+P01911)
# T1 construct: from tissue; host or cells: CD11c+ dendritic cells from spleens of DR2tg mice (DRA*0101 and DRB1*1501 cDNAs under a mouse MHCII promoter, no mouse MHC class II)
# Assay: In vivo presentation experiment, DR2tg mice
# Conditions: 100 μg peptide s.c., CD11c+ cells harvested after 2 hours, co-culture 48 hours
# Source text: FIG. 14: In vivo presentation protocol. Mice are immunized with peptide/CFA and a T cell line is established. For this, ten days after immunization the LN and spleens are harvested and cultured with different concentrations of peptide; 2×10^6 cells/ml APC+1×10^6 cells/ml CD4^+ cells per well. At day 7 the cells are re-stimulated with fresh APC and the same concentrations of peptide. After 14 to 21 days, CD4^+ cells are isolated from these cultures by magnetic bead isolation. These CD4^+ cells are co-cultured with CD11c^+ (dendritic) cells isolated by magnetic bead isolation from spleens of mice s.c. injected with peptide 2 hours before. Control mice receive a s.c. injection of PBS. After 48 hours, supernatant is collected and cytokine response (IFN-γ) is measured. […]
# FIG. 17: In vivo presentation of HIP-9FL nested peptides in DR2 mice. […] After 48 hours, supernatant was collected and IFN-γ production was measured by ELISA. […]
# DR3tg or DR2tg mice were injected with 100 μg of peptide in 100 μl PBS subcutaneously (s.c.) in the flank. […] After 48 hours, supernatant of these co-cultures was collected and CD4^+ T cell activation was analysed by IFN-γ ELISA (R&D Systems, Abingdon, UK). In a parallel experiment, CD4^+ T cell responses towards peptide added in vitro were assessed to make sure the T cells recognize the peptides presented by the CD11c^+ cells.
# T1 sequence (P01903 26-254): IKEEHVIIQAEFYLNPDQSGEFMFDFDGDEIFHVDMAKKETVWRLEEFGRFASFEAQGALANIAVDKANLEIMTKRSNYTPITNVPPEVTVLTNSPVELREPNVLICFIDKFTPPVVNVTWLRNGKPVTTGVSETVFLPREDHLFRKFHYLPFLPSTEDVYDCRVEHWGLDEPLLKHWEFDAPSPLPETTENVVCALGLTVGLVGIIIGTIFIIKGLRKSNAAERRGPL
# T1 sequence (P01911 30-266): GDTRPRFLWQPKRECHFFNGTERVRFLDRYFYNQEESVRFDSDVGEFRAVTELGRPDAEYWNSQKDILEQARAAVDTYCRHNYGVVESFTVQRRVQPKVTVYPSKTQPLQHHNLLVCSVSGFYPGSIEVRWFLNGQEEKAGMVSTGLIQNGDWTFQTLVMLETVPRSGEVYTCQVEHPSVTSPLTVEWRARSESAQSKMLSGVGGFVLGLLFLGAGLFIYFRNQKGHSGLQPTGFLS
substance,measurement,value
"KKKAFVEQVANVVLKKK-NH2 [HIP-9K1-KKK, KKKAFVEQVANVVLKKK]",picked up and presented by MHC II on dendritic cells to peptide-specific T cells (IFN-γ production),presented by DC to T cells
